Patent US20240246941A1, “SUBSTITUTED 4-(3-AMINOPROP-1-YL)AMINOQUINOLINE ANALOGS AS MODULATORS OF MELANOMA-ASSOCIATED ANTIGEN 11 UBIQUITIN LIGASE” (ST. JUDE CHILDREN'S RESEARCH HOSPITAL, INC., priority 2020, published 2024)

Biological target: MAGE-A11:PCF11 (Homo sapiens (Human), UniProt P43364)
Experiment: TR-FRET single point screening at 15 μM
Assay type: binding
Set-up: unit not given here
Settings: single point TR-FRET screening at 15 μM against MAGE-A11:PCF11
Excerpt: TR-FRET Assays and High-throughput Screen. Terbium-anti-GST antibody, 1 M Tris pH 7.5 1 M MgCl2 and 1 M DTT were purchased from Invitrogen (Carlsbad, CA), BSA was purchased from Sigma (St. Louis, MO). Dimethyl sulfoxide (DMSO) was purchased from Fisher Scientific (Pittsburgh, PA). Black 384-well low volume plates and 384-well polypropylene compound plates were purchased from Corning Incorporated (Tewksbury, MA). The St. Jude FDA drug and Bioactive library (11,293 chemicals), Drug-like library (10,073 chemicals) and Lead-like library (10,041 chemicals) were custom assembled and purchased from commercial sources including Sigma, Microsource (Gaylordsville, CT), selleckchem (Houston, TX), ChemDiv (San Diego, CA), ChemBridge (San Diego, CA), Enamine (Monmouth Jct., NJ), and Life Chemicals (Niagara-on-the-Lake, ON, Canada). They were arrayed (10 mM in DMSO) in 384-well polypropylene compound plates with columns 1, 2, 13 and 14 empty which were reserved for controls.
The TR-FRET assay buffer with a formula of 50 mM Tris pH 7.5, 20 mM MgCl2, 0.1 mg/ml BSA and 1 mM DTT was freshly prepared before each experiment. All TR-FRET assays were performed in black 384-well plates with 20 μl/well assay volume in the TR-FRET assay buffer at room temperature (approximately 25° C.). All peptides or compounds were solubilized in DMSO. To test the competitive activity of peptides or compounds against the interaction between GST-MAGEA11 MHD and FAM-PCF11_4 peptide, 10 μl/well peptide or compound at specified concentration was dispensed into a black 384-well low volume plate, followed by 5 μl/well FAM-PCF11_4 (800 nM), 5 μl/well Tb-anti-GST (20 nM) and GST-MAGEA11 MHD (20 nM). The assay components in each well was then mixed by shaking the plate on an IKA MTS 2/4 digital microtiter plate shaker (IKA Works; Wilmington, NC, USA) at 900 RPM for 1 minute. The plate was further centrifuged in an Eppendorf 5810 centrifuge with an A-4-62 swing-bucket rotor (Eppendorf AG, Hamburg, Germany) at 201 g (1000 rpm) for 30 seconds. The plate was then incubated for 90 min with a lid to avoid light exposure to the assay components. After incubation, the fluorescent emission signals at 520 nm and 490 nm channels of individual wells were measured with a PHERAstar FS plate reader (BMG Labtech; Durham, NC, USA) by using a 340 nm excitation filter, 100 μs delay time, and 200 μs integration time. The TR-FRET fluorescence emission ratio (TR-FRET signal) for each well was presented as 10 000×520 nm/490 nm, which was used directly for curve fitting, or further converted to % Inhibition based on the respective positive and negative controls. The graphic software GraphPad Prism 4.81 (GraphPad Software; La Jolla, CA, USA) was used to generate curves and derive IC50 values of tested peptides or compounds, if applicable.
TR-FRET screen for identifying MAGEA11 small molecule inhibitors was performed as follows. The primary one-concentration screening and subsequent 10 or 20-concentration dose response tests were accomplished with an automated High Throughput Screening system (HighRes Biosolutions, Beverly, MA)^30. In the primary screening, 15 μl/well FAM-PCF11_4 (267 nM) was first dispensed with a Multidrop Combi Reagent Dispenser (Thermo Fisher Scientific, Waltham, MA) to black 384-well low volume assay plates. The plates were spun down with a Velocity11 VSpin microplate centrifuge (Agilent Technologies, Santa Clara, CA). 30 nl/well of 10 mM compound/DMSO solutions, or DMSO alone, were transferred from compound plates (the St. Jude FDA drug and bioactive library, Drug-like library and Lead-like library) or a control plate to the assay plates with a Pin Tool (V&P Scientific, San Diego, CA). The compounds were arrayed in columns 3 to 12 and columns 15 to 24 of compound plates. The controls were arrayed in columns 1, 2, 13 and 14 of a compound plate. […]

Sequence of MAGE-A11:PCF11 (P43364 218-429): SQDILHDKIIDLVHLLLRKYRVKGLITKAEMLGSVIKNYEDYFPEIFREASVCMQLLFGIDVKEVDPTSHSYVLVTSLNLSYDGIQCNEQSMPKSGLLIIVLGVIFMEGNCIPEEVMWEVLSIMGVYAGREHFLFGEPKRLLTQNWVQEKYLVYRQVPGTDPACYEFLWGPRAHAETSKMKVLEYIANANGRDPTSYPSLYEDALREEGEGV

In order of falling TR-FRET signal:
1. Clc1ccc(CN(CCCCNc2ccnc3cc(Cl)ccc23)Cc2ccccc2)c(Cl)c1 [SJ000361207]  35.43
2. Cc1cc(C)c(CN(CCCCNc2ccnc3cc(Cl)ccc23)Cc2ccccc2)c(C)c1 [SJ000361193]  26.03
3. Clc1ccc2c(NCCCCN(Cc3ccccc3)Cc3cccc4c3OCO4)ccnc2c1 [SJ000520436]  21.65
4. CN(C)c1ccc(CN(CCCCNc2ccnc3cc(Cl)ccc23)Cc2ccccc2)cc1 [SJ000522727]  21.52
5. CCC(C)CN1CCC(Nc2ccnc3cc(Cl)ccc23)CC1 (stereo not drawn) [SJ000523105]  11.19
6. Fc1cccc(CN2CCC(Nc3ccnc4cc(Cl)ccc34)CC2)c1 [SJ000523092]  6.622
7. Cc1cc(NC(=O)CN2CCN(C)CC2)c2ccccc2n1 [SJ000111680]  4.647
8. C=CCOCC(O)CN1CCN(c2cc(C)nc3ccccc23)CC1 (stereo not drawn) [SJ000227652]  −0.207
9. Oc1ccc(Br)cc1CN1CCC(Nc2ccnc3cc(Cl)ccc23)CC1 [SJ000311181]  −1.209
10. COc1ccc(N2CCN(c3c(S(=O)(=O)c4ccc(Cl)cc4)cnc4ccc(C)cc34)CC2)cc1 [SJ000117075]  −3.122
11. CCN1CCN(c2c(S(=O)(=O)c3ccc(C)c(C)c3)cnc3ccc(OC)cc23)CC1 [SJ000247335]  −4.579
12. CCc1ccc2ncc(S(=O)(=O)c3ccc(C)c(C)c3)c(N3CCN(CC)CC3)c2c1 [SJ000247334]  −4.712
13. CCN1CCN(c2c(S(=O)(=O)c3ccc(Cl)cc3)cnc3cc(OC)c(OC)cc23)CC1 [SJ000083970]  −6.809
14. Cc1ccc(S(=O)(=O)c2cnc3ccc(F)cc3c2N2CCN(C)CC2)cc1C [SJ000247344]  −7.627
15. Cc1ccc(S(=O)(=O)c2cnc3ccccc3c2N2CCN(C)CC2)cc1 [SJ000247268]  −13.59
16. Cc1ccc(S(=O)(=O)c2cnc3ccc(F)cc3c2N2CCN(c3ccccc3)CC2)cc1C [SJ000117052]  −16.9
17. Cc1ccc2ncc(S(=O)(=O)c3ccccc3)c(N3CCN(c4ccccc4)CC3)c2c1 [SJ000083973]  −29.7
18. COc1ccc(N2CCN(c3c(S(=O)(=O)c4ccccc4)cnc4ccc(F)cc34)CC2)cc1 [SJ000083982]  −32.85
19. COc1ccc2ncc(S(=O)(=O)c3ccc(C)c(C)c3)c(N3CCN(c4ccccc4)CC3)c2c1 [SJ000117051]  −52.48
20. CCCN(CCCNc1c2ccc(Cl)cc2nc2ccc(OC)cc12)Cc1cc(OC)ccc1O [SJ000520933]  −150.8
21. CCCN(CCCNc1c2ccc(Cl)cc2nc2ccc(OC)cc12)Cc1cccc(C)c1 [SJ000520954]  −157.8
22. CCCN(CCCNc1c2ccc(Cl)cc2nc2ccc(OC)cc12)CC(CC)CC [SJ000520939]  −160.3
23. CCCCCN(CCC)CCCNc1c2ccc(Cl)cc2nc2ccc(OC)cc12 [SJ000520941]  −210.3
24. COc1ccc2nc3cc(Cl)ccc3c(NCCCNCc3cc4ccccc4s3)c2c1 [SJ000521000]  −220.4
25. COc1ccc2nc3cc(Cl)ccc3c(NCCCNCc3ccccn3)c2c1 [SJ000523024]  −255.3
26. CCCN(CCCNc1c2ccc(Cl)cc2nc2ccc(OC)cc12)Cc1ccsc1 [SJ000520922]  −258
27. CCCN(CCCNc1c2ccc(Cl)cc2nc2ccc(OC)cc12)CC1CC1 [SJ000520936]  −271.4
28. COc1ccc2nc3cc(Cl)ccc3c(NCCCNCc3ccoc3)c2c1 [SJ000520916]  −299.4
29. COc1ccc2nc3cc(Cl)ccc3c(NCCCNCc3sccc3C)c2c1 [SJ000361094]  −321.3

Same assay, conditions: single point TR-FRET screening of quinoline compounds against MAGE-A11:PCF11; 15 μM

In order of falling TR-FRET signal:
1. c1ccc(Cc2ccc3c(NCCCNCc4ccco4)ccnc3c2)cc1 [SJ000311306]  64.54
2. COC(=O)CCCCCNCCCNc1ccnc2cc(Cl)ccc12 [SJ000521021]  39.12
3. CCCN(CCCNc1ccnc2cc(C(F)(F)F)ccc12)Cc1ccc2[nH]ccc2c1 [SJ000575171]  32.89
4. FC(F)(F)c1ccc2c(NCCCNCc3cc(Br)cs3)ccnc2c1 [SJ000521056]  32.72
5. CCCCCCNCCCNc1ccnc2cc(C(F)(F)F)ccc12 [SJ000361124]  31.61
6. CCCN(CCCNc1ccnc2cc(Cl)ccc12)Cc1ccc(-c2ccccc2)cc1 [SJ000523039]  30.23
7. O=[N+]([O-])c1ccc(CN(CCCNc2ccnc3cc(Cl)ccc23)Cc2ccccc2)cc1 [SJ000361179]  20.2
8. CCCN(CCCNc1ccnc2cc(Cl)ccc12)Cc1ccc(C)o1 [SJ000357437]  20.15
9. NC(=O)CC(Nc1c2ccccc2nc2ccccc12)C(=O)O (stereo not drawn) [SJ000044383]  20.1
10. CCCN(CCCNc1ccnc2cc(C(F)(F)F)ccc12)Cc1csc2ccccc12 [SJ000520483]  19.45
11. CCCN(CCCNc1ccnc2cc(Cl)ccc12)Cc1cccc(C(F)(F)F)c1 [SJ000523013]  17.48
12. CCCN(CCCNc1ccnc2cc(Cl)ccc12)Cc1cc(F)ccc1OC [SJ000357494]  17.08
13. CCCN(CCCNc1ccnc2cc(Cl)ccc12)Cc1ccc(C(=O)OC)cc1 [SJ000523042]  16.72
14. CCCN(CCCNc1ccnc2cc(Cl)ccc12)Cc1ccc(C)s1 [SJ000357433]  16.51
15. CCCN(CCCNc1ccnc2cc(Cl)ccc12)Cc1cc(F)cc(F)c1O [SJ000357597]  15.96
16. c1ccc(CCc2ccc3c(NCCCNCc4ccco4)ccnc3c2)cc1 [SJ000311254]  15.95
17. CCCN(CCCNc1ccnc2cc(C(F)(F)F)ccc12)Cc1ccc(F)c(F)c1 [SJ000361272]  13.84
18. CCCN(CCCNc1ccnc2cc(C(F)(F)F)ccc12)Cc1cccc(C(F)(F)F)c1 [SJ000520471]  13.02
19. C#Cc1ccccc1CN(CCC)CCCNc1ccnc2cc(Cl)ccc12 [SJ000523000]  12.45
20. CCCN(CCCNc1ccnc2cc(C(F)(F)F)ccc12)Cc1ccc2ccccc2c1 [SJ000523075]  11.39
21. CCCN(CCCNc1ccnc2cc(Cl)ccc12)CC1CCOC1 (stereo not drawn) [SJ000523016]  9.664
22. CCCN(CCCNc1ccnc2cc(Cl)ccc12)Cc1ccc(-c2ccccc2[N+](=O)[O-])o1 [SJ000523044]  9.266
23. FC(F)(F)c1ccc2c(NCCCNCc3nccs3)ccnc2c1 [SJ000521046]  7.779
24. Clc1ccc2c(NCCCN(Cc3ccccc3)Cc3cc4ccccc4o3)ccnc2c1 [SJ000520461]  5.6
25. CCCN(CCCNc1ccnc2cc(Cl)ccc12)Cc1ccco1 [SJ000357458]  3.483
26. Cn1ccnc1CNCCCNc1ccnc2cc(Cl)ccc12 [SJ000521040]  1.449
27. COc1ccc2nc3cc(Cl)ccc3c(NCCCNCc3ccc[nH]3)c2c1 [SJ000361084]  0.9854
28. CCOC(=O)c1cnc2ccc(F)cc2c1NCCCN1CCOCC1 [SJ000279864]  −0.3915
29. Clc1ccc2c(NCCCN(Cc3ccccc3)Cc3nccs3)ccnc2c1 [SJ000312676]  −4.148
30. CCCN(CCCNc1c2ccc(Cl)cc2nc2ccc(OC)cc12)Cc1csc2ccccc12 [SJ000522970]  −51.69
31. CCCN(CCCNc1c2ccc(Cl)cc2nc2ccc(OC)cc12)Cc1cc(Br)cs1 [SJ000522989]  −56.7
